Experimental findings from patent US20230123334A1, “AMINO LIPID COMPOUND, PREPARATION METHOD THEREFOR, AND APPLICATION THEREOF” (SHENZHEN SHENXIN BIOTECHNOLOGY CO., LTD., priority 2020, published 2023) are described below.

The assay has as its system HEK293 cells. Nature of the assay: Preliminary screening as DNA vectors, GFP transfection of HEK293 cells. Format: cell-based. As to conditions: amino lipid/DOPE liposome with 75 ng plasmid DNA (psin-EGFP-IRES-Puro); number of GFP-expressing cells divided by total nuclei (Hoechst). On the procedure: Cell line: HEK293 cells (ATCC CRL-1573™)
Medium: DMEM supplemented with 10% fetal bovine serum (Invitrogen)
Mode of screening: cell transfection on 96-well plates
Detection (readout): percentage of the number of GFP fluorescent cells relative to the total number of cells (the total number of cells was measured using nucleus dye Hoechst—see FIG. 2). Lipofectamine2000 (Invitrogen) was used as positive control, according to the manufacturer's instructions.
Method: an 8-channel pipette was used for sample addition. The contents shown were for a single well of a 96-well flat plate.
1. The compound (0.01 mmol) prepared in Example 1 was dissolved in 1 mL of anhydrous ethanol. After ultrasonically dissolved, 10 μL of the resultant amino lipid solution in ethanol was taken and mixed with 5 μL of DOPE solution in ethanol (0.01 m), and then to the obtained mixture was added 35 μL of 0.2M sodium acetate buffer (pH 5.6), and 50 μL of liposome solution was prepared by vortex at a constant rotating speed for 30 s. 4 μL was taken from the 50 μL liposome solution and added to 46 μL of 0.02M sodium acetate buffer (pH 5.6), and the final liposome solution was formed by vortex at a constant rotating speed for 30 s. 5 μL was taken from the final liposome solution and mixed with 75 ng plasmid DNA (psin-EGFP-IRES-Puro, Clontech) dissolved in 5 μL of 0.02 M sodium acetate buffer, and was allowed to stay at room temperature for 30 min to form a lipid/DNA transfection complex.
2. 10 μL of the lipid/DNA transfection complex was incubated at room temperature for 30 min, followed by addition of 90 μL of fresh resuspended cells (3-5×10^4 cells) and mixing with a pipette. 100 μL of cells+lipid/DNA complex was transferred to separate wells of a 96-well culture plate immediately, and placed in an incubator containing 5% CO2 at 37° C.
3. Hoechst33258 (Invitrogen) was added at a final concentration of 0.2 μg/mL to the cells 20 to 24 hours after initial cell transfection, and cultured in darkness at 37° C. for 15 min. Afterwards, the cells were washed once with a PBS solution, and then added with medium for culture for 20 to 24 h.
4. The cells were placed in a high-throughput confocal microscope (Molecular Devices ImageXpress), and four visual fields of the image of the cells were captured for each well, and images at three laser wavelengths were captured for each sample: bright field images of cells (FIG. 2(a) and FIG. 2(b)), Hoechst-staining images showing total nuclei (FIG. 2(c) and FIG. 2(d)) and GFP images showing success in transfection with the plasmid DNA and the expression of GFP (FIG. 2(e) and FIG. 2(f)). MetaXpress software was used to separately count the cells in the Hoechst-staining images and GFP images, and then the number of cells expressing GFP was divided by the total number of nuclei to give the absolute cell transfection efficiency. The absolute transfection efficiency was calculated as follows: […]

As to `CCCCCCCCCCCCCCSc1nc(NCCN(C)C)nc(SCCCCCC)n1` [S6S14 D1], the “Absolute DNA transfection efficiency in HEK293 cells” value (“Absolute DNA transfection efficiency” for short) is recorded as 8.3%. To `CCCCCCCCCCCCCCSc1nc(NCCN2CCOCC2)nc(SCCCCCC)n1` [S6S14 D2] belongs 11.1%; to `CCCCCCCCCCCCCCSc1nc(NCCN2CCCC2)nc(SCCCCCC)n1` [S6S14 D3], 9.2%.

For `CCCCCCCCCCCCCCSc1nc(NCCN2CCCCC2)nc(SCCCCCC)n1` [S6S14 D4], the “Absolute DNA transfection efficiency” value amounted to 12.0%. For `CCCCCCCCCCCCCCSc1nc(NCCN2CCN(C)CC2)nc(SCCCCCC)n1` [S6S14 D5], the “Absolute DNA transfection efficiency” value turned out to be 18.6%.

As to `CCCCCCCCCCCCCCSc1nc(NCCCN(C)C)nc(SCCCCCC)n1` [S6S14 D6], the “Absolute DNA transfection efficiency” value was 21.9%. As for `CCCCCCCCCCCCCCSc1nc(NCCN(CC)CC)nc(SCCCCCC)n1` [S6S14 D7], the “Absolute DNA transfection efficiency” value turned out to be 4.7%. The result for `CCCCCCCCCCCCCCSc1nc(NCCCN2CCOCC2)nc(SCCCCCC)n1` [S6S14 D8] reads 2.3%. Take `CCCCCCCCCCCCCCSc1nc(NCCCN2CCN(C)CC2)nc(SCCCCCC)n1` [S6S14 D9]: the “Absolute DNA transfection efficiency” value is recorded as 4.1%.

On to `CCCCCCCCCCCCCCSc1nc(NCC2CCN(C)CC2)nc(SCCCCCC)n1` [S6S14 D10], for which the “Absolute DNA transfection efficiency” value is recorded as 53.3%. On to `CCCCCCCCCCCCCCCSc1nc(NCCN(C)C)nc(SCCCCCC)n1` [S6S15 D1], for which the “Absolute DNA transfection efficiency” value is on record as 5.5%. To `CCCCCCCCCCCCCCCSc1nc(NCCN2CCOCC2)nc(SCCCCCC)n1` [S6S15 D2] belongs 8.4%.

Consider `CCCCCCCCCCCCCCCSc1nc(NCCN2CCCC2)nc(SCCCCCC)n1` [S6S15 D3], for which the “Absolute DNA transfection efficiency” value is reported as 14.5%. As for `CCCCCCCCCCCCCCCSc1nc(NCCN2CCCCC2)nc(SCCCCCC)n1` [S6S15 D4], the “Absolute DNA transfection efficiency” value is reported as 7.9%. Consider `CCCCCCCCCCCCCCCSc1nc(NCCN2CCN(C)CC2)nc(SCCCCCC)n1` [S6S15 D5], for which the “Absolute DNA transfection efficiency” value is 13.7%. The result for `CCCCCCCCCCCCCCCSc1nc(NCCCN(C)C)nc(SCCCCCC)n1` [S6S15 D6] reads 36.4%; that for `CCCCCCCCCCCCCCCSc1nc(NCCN(CC)CC)nc(SCCCCCC)n1` [S6S15 D7], 3.3%.

As to `CCCCCCCCCCCCCCCSc1nc(NCCCN2CCOCC2)nc(SCCCCCC)n1` [S6S15 D8], the “Absolute DNA transfection efficiency” value stood at 11.5%.

For the compound `CCCCCCCCCCCCCCCSc1nc(NCCCN2CCN(C)CC2)nc(SCCCCCC)n1` [S6S15 D9], the “Absolute DNA transfection efficiency” value amounted to 8.3%.

Turning to `CCCCCCCCCCCCCCCSc1nc(NCC2CCN(C)CC2)nc(SCCCCCC)n1` [S6S15 D10], the “Absolute DNA transfection efficiency” value turned out to be 34.5%. The result for `CCCCCCCCCCCCCCCCSc1nc(NCCN(C)C)nc(SCCCCCC)n1` [S6S16 D1] reads 8.4%. The result for `CCCCCCCCCCCCCCCCSc1nc(NCCN2CCOCC2)nc(SCCCCCC)n1` [S6S16 D2] reads 24.0%. The result for `CCCCCCCCCCCCCCCCSc1nc(NCCN2CCCC2)nc(SCCCCCC)n1` [S6S16 D3] reads 9.8%.

On to `CCCCCCCCCCCCCCCCSc1nc(NCCN2CCCCC2)nc(SCCCCCC)n1` [S6S16 D4], for which the “Absolute DNA transfection efficiency” value is recorded as 7.9%. `CCCCCCCCCCCCCCCCSc1nc(NCCN2CCN(C)CC2)nc(SCCCCCC)n1` [S6S16 D5]: the “Absolute DNA transfection efficiency” value stood at 15.2%. Turning to `CCCCCCCCCCCCCCCCSc1nc(NCCCN(C)C)nc(SCCCCCC)n1` [S6S16 D6], the “Absolute DNA transfection efficiency” value is recorded as 0.4%.

In the case of `CCCCCCCCCCCCCCCCSc1nc(NCCN(CC)CC)nc(SCCCCCC)n1` [S6S16 D7], the “Absolute DNA transfection efficiency” value is 3.7%. Take `CCCCCCCCCCCCCCCCSc1nc(NCCCN2CCOCC2)nc(SCCCCCC)n1` [S6S16 D8]: the “Absolute DNA transfection efficiency” value came out at 0.0%.
